Experimental data reported in paper doi:10.1101/2023.10.01.560353v1 (bioRxiv, 2023).
Values after ≈ are worked out from the molar mass of the structure shown. Peptide text beside a SMILES is read from it.

These compounds were tested on 11 clinically relevant bacterial pathogens (assay: MIC over the panel of pathogens). Details: Table S17; lowest MIC over the strains tested.
Format: cell-based
In the case of `CC[C@H](C)[C@H](NC(=O)[C@H](CCCNC(=N)N)NC(=O)[C@H](Cc1c[nH]cn1)NC(=O)[C@H](CCCCN)NC(=O)[C@@H](NC(=O)CNC(=O)[C@H](CCCNC(=N)N)NC(=O)[C@H](C)NC(=O)[C@H](CCCCN)NC(=O)[C@@H](NC(=O)[C@H](C)NC(=O)[C@@H]1CCCN1C(=O)[C@H](CC(C)C)NC(=O)[C@H](CCC(N)=O)NC(=O)[C@H](CO)NC(=O)[C@H](Cc1ccccc1)NC(=O)[C@H](CC(C)C)NC(=O)[C@H](CC(C)C)NC(=O)[C@@H](NC(=O)[C@@H](N)CS)C(C)C)C(C)C)[C@@H](C)O)C(=O)N[C@@H](CCCCN)C(=O)N[C@@H](Cc1c[nH]c2ccccc12)C(=O)N[C@@H](CC(N)=O)C(=O)N[C@@H](CCCNC(=N)N)C(=O)N[C@@H](CCCCN)C(=O)O` [Equusin-4] (H-CVLLFSQLPAVKARGTKHRIKWNRK-OH), the “MIC (lowest MIC value obtained in the antimicrobial activity assays)” value (“MIC” for short) is reported as 16 mol/L (≈ 47200 mg/mL). `CC[C@H](C)[C@H](N)C(=O)N[C@@H](CC(C)C)C(=O)N[C@H](C(=O)N[C@@H](CC(C)C)C(=O)N[C@@H](Cc1ccccc1)C(=O)N[C@H](C(=O)N[C@H](C(=O)N[C@@H](Cc1ccccc1)C(=O)N[C@@H](CCC(N)=O)C(=O)N[C@@H](CC(C)C)C(=O)N[C@@H](CCCCN)C(=O)N[C@H](C(=O)N[C@@H](CO)C(=O)N[C@@H](CCCCN)C(=O)N[C@@H](CC(C)C)C(=O)O)[C@@H](C)CC)[C@@H](C)CC)[C@@H](C)CC)[C@@H](C)O` [Paleopropin-2] (H-ILTLFIIFQLKISKL-OH) was tested, and the “MIC” value was 16 mol/L (≈ 28600 mg/mL). In the case of `CC(C)C[C@H](NC(=O)[C@H](CC(C)C)NC(=O)[C@@H](NC(=O)[C@H](CCCNC(=N)N)NC(=O)[C@H](C)NC(=O)[C@H](Cc1ccccc1)NC(=O)[C@H](CCCNC(=N)N)NC(=O)[C@H](CO)NC(=O)[C@H](Cc1c[nH]c2ccccc12)NC(=O)[C@H](CCCNC(=N)N)NC(=O)[C@H](CC(C)C)NC(=O)[C@H](CCCCN)NC(=O)[C@H](CC(C)C)NC(=O)[C@@H](N)Cc1ccccc1)C(C)C)C(=O)O` [Equusin-1] (H-FLKLRWSRFARVLL-OH), the “MIC” value is reported as 1 mol/L (≈ 1810 mg/mL). With `CC[C@H](C)[C@H](NC(=O)[C@H](CCCCN)NC(=O)[C@@H](N)CCCNC(=N)N)C(=O)N[C@@H](CC(C)C)C(=O)NCC(=O)N[C@@H](CC(=O)O)C(=O)N[C@@H](CC(C)C)C(=O)N[C@@H](CCCCN)C(=O)N[C@@H](Cc1ccccc1)C(=O)N[C@@H](CC(C)C)C(=O)N[C@@H](CCC(=O)O)C(=O)N[C@@H](CO)C(=O)N[C@@H](CC(C)C)C(=O)N[C@@H](CCCCN)C(=O)N[C@H](C(=O)N[C@@H](Cc1ccc(O)cc1)C(=O)O)[C@@H](C)O` [Anomalopterin-1] (H-RKILGDLKFLESLKTY-OH) the “MIC” value was 64 mol/L (≈ 123000 mg/mL). `CC[C@H](C)[C@H](NC(=O)[C@@H](N)[C@@H](C)O)C(=O)N[C@@H](CCCCN)C(=O)N[C@@H](CC(C)C)C(=O)N[C@@H](Cc1ccccc1)C(=O)N[C@@H](CC(C)C)C(=O)N[C@@H](CO)C(=O)N[C@@H](Cc1ccccc1)C(=O)N[C@@H](CCCCN)C(=O)N[C@@H](CC(C)C)C(=O)O` [Xenothrixin-1] (H-TIKLFLSFKL-OH) was tested, and the “MIC” value was 8 mol/L (≈ 9680 mg/mL). For `CC[C@H](C)[C@H](NC(=O)[C@@H](NC(=O)[C@H](Cc1c[nH]c2ccccc12)NC(=O)[C@H](CCCCN)NC(=O)[C@@H](N)CCCCN)C(C)C)C(=O)N[C@@H](CCCCN)C(=O)N[C@@H](CO)C(=O)N[C@H](C(=O)N[C@H](C(=O)N[C@@H](Cc1ccccc1)C(=O)N[C@@H](Cc1ccccc1)C(=O)N[C@@H](CCCCN)C(=O)O)C(C)C)C(C)C` [Hesperelin-2] (H-KKWVIKSVVFFK-OH), the “MIC” value was 8 mol/L (≈ 12100 mg/mL). With `CC[C@H](C)[C@H](NC(=O)[C@H](Cc1c[nH]cn1)NC(=O)[C@@H](N)CC(C)C)C(=O)NCC(=O)N[C@@H](CC(C)C)C(=O)N[C@H](C(=O)N[C@@H](CCCCN)C(=O)N[C@H](C(=O)N[C@@H](Cc1ccc(O)cc1)C(=O)N[C@@H](CC(C)C)C(=O)NCC(=O)N[C@@H](CO)C(=O)N[C@@H](Cc1ccccc1)C(=O)N[C@@H](C)C(=O)N[C@@H](CC(C)C)C(=O)O)[C@@H](C)O)[C@@H](C)CC` [Eudyptin-1] (H-LHIGLIKTYLGSFAL-OH) the “MIC” value was 64 mol/L (≈ 105000 mg/mL). `CC[C@H](C)[C@H](NC(=O)[C@H](CC(C)C)NC(=O)[C@H](Cc1c[nH]cn1)NC(=O)[C@@H](NC(=O)[C@H](CC(C)C)NC(=O)[C@H](CC(C)C)NC(=O)[C@H](Cc1c[nH]cn1)NC(=O)CN)[C@@H](C)CC)C(=O)NCC(=O)N[C@@H](CCCCN)C(=O)N[C@@H](C)C(=O)N[C@H](C(=O)N[C@@H](CC(C)C)C(=O)N[C@@H](C)C(=O)N[C@@H](CC(C)C)C(=O)O)[C@@H](C)O` [Arctoterin-1] (H-GHLLIHLIGKATLAL-OH) was tested, and the “MIC” value was 64 mol/L (≈ 100000 mg/mL). In the case of `CC[C@H](C)[C@H](NC(=O)[C@H](CCCCN)NC(=O)[C@H](CC(C)C)NC(=O)[C@@H](NC(=O)[C@@H](N)CCCCN)[C@@H](C)O)C(=O)N[C@H](C(=O)N[C@@H](CCCNC(=N)N)C(=O)N[C@@H](CC(C)C)C(=O)N[C@@H](CC(C)C)C(=O)N[C@@H](Cc1ccccc1)C(=O)O)[C@@H](C)CC` [Mammuthusin-3] (H-KTLKIIRLLF-OH), the “MIC” value is reported as 16 mol/L (≈ 19900 mg/mL). `CC[C@H](C)[C@H](NC(=O)[C@H](CC(C)C)NC(=O)[C@H](CCCNC(=N)N)NC(=O)[C@H](Cc1c[nH]c2ccccc12)NC(=O)[C@H](CC(C)C)NC(=O)[C@@H](NC(=O)[C@H](CCCNC(=N)N)NC(=O)[C@H](CCC(N)=O)NC(=O)[C@H](Cc1ccc(O)cc1)NC(=O)[C@H](CC(C)C)NC(=O)[C@@H](N)CCCCN)[C@@H](C)CC)C(=O)N[C@@H](CO)C(=O)N[C@@H](CCC(=O)O)C(=O)N[C@@H](CC(C)C)C(=O)O` [Equusin-3] (H-KLYQRILWRLISEL-OH) was tested, and the “MIC” value was 4 mol/L (≈ 7320 mg/mL). `CC[C@H](C)[C@H](NC(=O)[C@H](CCCCN)NC(=O)[C@H](CO)NC(=O)[C@H](CC(N)=O)NC(=O)[C@H](Cc1ccccc1)NC(=O)[C@H](Cc1c[nH]cn1)NC(=O)[C@H](Cc1ccccc1)NC(=O)[C@@H](N)Cc1c[nH]c2ccccc12)C(=O)N[C@@H](CC(C)C)C(=O)N[C@@H](CC(C)C)C(=O)N[C@@H](CC(C)C)C(=O)N[C@H](C(=O)NCC(=O)N[C@@H](CC(C)C)C(=O)O)[C@@H](C)O` [Mylodonin-1] (H-WFHFNSKILLLTGL-OH) was tested, and the “MIC” value was 8 mol/L (≈ 13500 mg/mL). In the case of `CC[C@H](C)[C@H](N)C(=O)N[C@@H](CC(C)C)C(=O)N[C@@H](CC(C)C)C(=O)N[C@H](C(=O)N[C@H](C(=O)N[C@@H](C)C(=O)N[C@H](C(=O)N[C@@H](C)C(=O)N[C@H](C(=O)N[C@@H](CCCCN)C(=O)N[C@@H](CC(C)C)C(=O)NCC(=O)N[C@@H](CC(C)C)C(=O)O)[C@@H](C)CC)[C@@H](C)CC)[C@@H](C)O)[C@@H](C)O` [Ararin-1] (H-ILLTTAIAIKLGL-OH), the “MIC” value is reported as 32 mol/L (≈ 42900 mg/mL). With `CC[C@H](C)[C@H](NC(=O)[C@H](CCCCN)NC(=O)[C@H](CC(C)C)NC(=O)[C@H](CCC(N)=O)NC(=O)[C@H](Cc1ccccc1)NC(=O)[C@@H](NC(=O)[C@@H](NC(=O)[C@H](Cc1ccccc1)NC(=O)[C@H](CC(C)C)NC(=O)[C@@H](NC(=O)[C@@H](N)CC(C)C)[C@@H](C)O)[C@@H](C)CC)[C@@H](C)CC)C(=O)N[C@@H](CO)C(=O)N[C@@H](CCCCN)C(=O)N[C@@H](CC(C)C)C(=O)O` [Paleopropin-1] (H-LTLFIIFQLKISKL-OH) the “MIC” value was 32 mol/L (≈ 53700 mg/mL).
